Measurements reported in the supplement of paper PMC8671470.

Legend:
Conditions in all cases: 72 h
[1] = test system: BV-173
How it was run: (§1)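 For the IC50, dose–response curves were fitted with a log-logistic model. The data came from fifteen myeloid leukaemia cell lines grown in RPMI 1640 at densities in the linear growth range and incubated in 384-well plates for 72 h at 37 °C under 5% CO2. Doses were five tenfold steps from 1 to 10,000 nM in duplicate, and luminescent ATP viability was normalised to vehicle and to a positive control at 10 µM before four-parameter fitting.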

[2] = test system: HEL
How it was run: as §1

[3] = test system: HL-60
How it was run: as §1

[4] = test system: K-562
How it was run: as §1

[5] = test system: KCL-22
How it was run: as §1

[6] = test system: KG-1
How it was run: as §1

[7] = test system: KU-812
How it was run: as §1

[8] = test system: LAMA-84
How it was run: as §1

[9] = test system: ML-2
How it was run: as §1

[10] = test system: MOLM-13
How it was run: as §1

[11] = test system: MV4-11
How it was run: as §1

[12] = test system: Mono-Mac-6
How it was run: as §1

[13] = test system: NOMO-1
How it was run: as §1

[14] = test system: SHI-1
How it was run: as §1

[15] = test system: THP-1
How it was run: as §1

[16] = test system: BV-173; assay: cell viability (% survival relative to DMSO control, bortezomib = 0%); higher = less cytotoxic
How it was run: (§2)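 In 384-well plates pre-printed with compounds at 1, 10, 100, 1000 or 10000 nM, duplicate wells received cells from 10 AML and 5 CML lines at densities within the linear growth range. The plates stayed at 37 °C with 5% CO2 for 72 h before CellTiter-Glo luminescence was recorded. Each entry is averaged percent survival. Scaling placed vehicle at 100% and a 10 µM positive control at 0%.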

[17] = test system: HEL; assay: as above
How it was run: as §2

[18] = test system: HL-60; assay: as above
How it was run: as §2

[19] = test system: K-562; assay: as above
How it was run: as §2

[20] = test system: KCL-22; assay: as above
How it was run: as §2

[21] = test system: KG-1; assay: as above
How it was run: as §2

[22] = test system: KU-812; assay: as above
How it was run: as §2

[23] = test system: LAMA-84; assay: as above
How it was run: as §2

[24] = test system: ML-2; assay: as above
How it was run: as §2

[25] = test system: MOLM-13; assay: as above
How it was run: as §2

[26] = test system: MV4-11; assay: as above
How it was run: as §2

[27] = test system: Mono-Mac-6; assay: as above
How it was run: as §2

[28] = test system: NOMO-1; assay: as above
How it was run: as §2

[29] = test system: SHI-1; assay: as above
How it was run: as §2

[30] = test system: THP-1; assay: as above
How it was run: as §2

Cc1[nH]nc(C(F)(F)F)c1Cc1sc2c(c1C(=O)N1C[C@](C)(O)CO1)c(=O)n(C)c(=O)n2C(C)C [AZD3965]
Conditions | IC50 (cell viability) [µM]
[1] | 0.0362
[2] | > 10
[3] | > 10
[4] | 0.00627
[5] | > 10
[6] | > 10
[7] | > 10
[8] | > 10
[9] | > 10
[10] | > 10
[11] | > 10
[12] | > 10
[13] | > 10
[14] | > 10
[15] | > 10

cell viability [%]
Conditions | 1 nM | 10 nM | 100 nM | 1000 nM | 10000 nM
[16] | 91.4 | 103 | 4.97 | 0.26 | 0.551
[17] | 84.2 | 108 | 116 | 111 | 109
[18] | 79.9 | 95.6 | 111 | 113 | 115
[19] | 101 | 42 | 33.8 | 20 | 21.9
[20] | 89.7 | 112 | 125 | 102 | 108
[21] | 114 | 118 | 124 | 132 | 127
[22] | 91.7 | 120 | 112 | 89.8 | 98.9
[23] | 89.5 | 120 | 113 | 95.1 | 102
[24] | 106 | 116 | 114 | 108 | 101
[25] | 113 | 120 | 120 | 105 | 93.5
[26] | 89 | 106 | 138 | 94.7 | 81.6
[27] | 108 | 105 | 111 | 84.9 | 98.3
[28] | 95.3 | 112 | 114 | 101 | 105
[29] | 103 | 101 | 109 | 101 | 96.7
[30] | 107 | 104 | 113 | 99.5 | 102

O=c1cc(-c2ccccc2)oc2c1ccc1ccccc12 [Alpha-Naphtoflavone]
Conditions | IC50 (cell viability) [µM]
[1] | > 10
[2] | > 10
[3] | > 10
[4] | > 10
[5] | > 10
[6] | > 10
[7] | > 10
[8] | > 10
[9] | > 10
[10] | > 10
[11] | > 10
[12] | > 10
[13] | > 10
[14] | > 10
[15] | > 10

cell viability [%]
Conditions | 1 nM | 10 nM | 100 nM | 1000 nM | 10000 nM
[16] | 105 | 92.1 | 105 | 111 | 108
[17] | 96.1 | 95.6 | 102 | 96.4 | 102
[18] | 118 | 83.8 | 95.6 | 104 | 103
[19] | 95.8 | 101 | 109 | 90.2 | 108
[20] | 107 | 98.1 | 97.7 | 85.8 | 84.8
[21] | 114 | 89.4 | 95.1 | 90.9 | 74.7
[22] | 98.8 | 99.3 | 96.3 | 96 | 89.9
[23] | 103 | 95.9 | 103 | 93.5 | 94.4
[24] | 101 | 102 | 93.4 | 83.4 | 82.3
[25] | 115 | 93.5 | 96.2 | 80.9 | 90.1
[26] | 106 | 109 | 107 | 89.6 | 97.1
[27] | 92.7 | 90.3 | 93.6 | 111 | 113
[28] | 99.7 | 94.3 | 108 | 95.6 | 95.2
[29] | 113 | 99.2 | 97.7 | 95.8 | 96.8
[30] | 98.3 | 99.6 | 102 | 102 | 101
